Consider 15 molecules from PubChem BioAssay (NCI).

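1) Cells in 96-well plates. 2) Compound, 48 h, 5 concentrations. 3) Linear interpolation between surrounding doses. 4) Unreached endpoint = highest concentration. At the TGI there is no net growth.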

Test systems include NCI-H522 lung; HS 578T breast; HCC-2998 colon; T-47D breast; U251 CNS; DU-145 prostate; MDA-N; SR leukemia; OVCAR-5 ovarian; KM12 colon; EKVX NSCLC; IGROV1 ovarian; SK-MEL-5 melanoma; CCRF-CEM leukemia; OVCAR-8 ovarian; MALME-3M melanoma; COLO 205 colon; HL-60(TB) leukemia; SF-295 CNS; MDA-MB-231 breast.
Common to all, as to assay: NCI tumour cell line growth inhibition, 48 h

For the molecule `Cc1ncc([N+](=O)[O-])n1CCNC(=O)CCn1ccnc1[N+](=O)[O-]`, the TGI in the assay on NCI-H522 lung, in the assay on HS 578T breast, with HCC-2998 colon, in the assay on T-47D breast, with U251 CNS and with DU-145 prostate was over 100 µM each time. Also, the TGI in the assay with MDA-N, in the assay with SR leukemia, with OVCAR-5 ovarian, in the assay with KM12 colon, with EKVX NSCLC and with IGROV1 ovarian was over 100 µM in each case. In addition, the TGI in the assay on SK-MEL-5 melanoma, in the assay on CCRF-CEM leukemia, with OVCAR-8 ovarian, in the assay on MALME-3M melanoma, with COLO 205 colon and with HL-60(TB) leukemia was over 100 µM each time. Further, the TGI in the assay on SF-295 CNS was over 100 µM.

For the molecule `CCn1c(=O)c2c3ccc(O)cc3oc2c2ccc(O)cc21`, the TGI was over 100 µM with NCI-H522 lung; 70.4 µM in the assay with HS 578T breast; over 100 µM in the assay with HCC-2998 colon; 69.1 µM with T-47D breast; over 100 µM with U251 CNS; over 100 µM in the assay with DU-145 prostate. Also, the TGI in the assay on MDA-N was over 100 µM; in the assay on SR leukemia it was over 100 µM; in the assay on KM12 colon, over 100 µM; in the assay with EKVX NSCLC it was 7.39 µM; in the assay with MDA-MB-231 breast, over 100 µM; with IGROV1 ovarian it was over 100 µM. Also, the TGI in the assay with SK-MEL-5 melanoma, in the assay with CCRF-CEM leukemia, in the assay on OVCAR-8 ovarian, in the assay with MALME-3M melanoma, in the assay on COLO 205 colon and in the assay on SF-295 CNS was over 100 µM throughout.

In the case of `COc1ccccc1N1C(=O)/C(=C\c2cc(OC)c(OC)c(OC)c2)S(=O)(=O)C1c1ccccc1` (stereo not given), the TGI in the assay on NCI-H522 lung is 50.7 µM; in the assay on HS 578T breast, over 100 µM; in the assay with HCC-2998 colon, over 100 µM; with T-47D breast it was over 100 µM; in the assay with U251 CNS, over 100 µM; with DU-145 prostate, over 100 µM. In addition, the TGI was 48.3 µM in the assay with MDA-N; over 100 µM in the assay with SR leukemia; over 100 µM in the assay with KM12 colon; over 100 µM in the assay with MDA-MB-231 breast; over 100 µM in the assay on SK-MEL-5 melanoma; 61.2 µM with CCRF-CEM leukemia. The TGI is over 100 µM in the assay on OVCAR-8 ovarian, 96.3 µM in the assay on MALME-3M melanoma, over 100 µM in the assay on COLO 205 colon and over 100 µM with SF-295 CNS.

Turning to `O=C(/C=C/c1ccccc1)CCC1C(=O)NC(=O)NC1=O`, the TGI with NCI-H522 lung, in the assay with HS 578T breast, with HCC-2998 colon, with T-47D breast, with U251 CNS and with DU-145 prostate was over 100 µM each time. Moreover, the TGI in the assay with MDA-N, in the assay on OVCAR-5 ovarian, in the assay with KM12 colon, in the assay with EKVX NSCLC, in the assay on MDA-MB-231 breast and in the assay on IGROV1 ovarian was over 100 µM each time. Also, the TGI in the assay with SK-MEL-5 melanoma, with OVCAR-8 ovarian, in the assay on MALME-3M melanoma, with COLO 205 colon, in the assay on HL-60(TB) leukemia and in the assay on SF-295 CNS was over 100 µM throughout.

In the case of `CCO/C(O)=C(/C(=N)N1CCCC1)C(=O)Nc1ccc(Cl)cc1`, the TGI in the assay on NCI-H522 lung, in the assay with HS 578T breast, with HCC-2998 colon, in the assay on T-47D breast, in the assay on U251 CNS and with DU-145 prostate was over 100 µM in each case. The TGI with MDA-N, with OVCAR-5 ovarian, in the assay with KM12 colon, with EKVX NSCLC, in the assay with MDA-MB-231 breast and with IGROV1 ovarian was over 100 µM throughout. Also, the TGI in the assay on CCRF-CEM leukemia, in the assay on OVCAR-8 ovarian, in the assay with MALME-3M melanoma, in the assay on COLO 205 colon, in the assay on HL-60(TB) leukemia and with SF-295 CNS was over 100 µM throughout.

On to `N#CC(C#N)=C1CCCCc2ccc([N+](=O)[O-])cc21`, for which the TGI with NCI-H522 lung is 39.9 µM; with HS 578T breast it was over 100 µM; with HCC-2998 colon, over 100 µM; with T-47D breast it was over 100 µM; with U251 CNS, over 100 µM; in the assay with DU-145 prostate, over 100 µM. Besides, the TGI in the assay on MDA-N, in the assay on OVCAR-5 ovarian, with KM12 colon, in the assay on EKVX NSCLC, in the assay with MDA-MB-231 breast and in the assay with IGROV1 ovarian was over 100 µM throughout. Besides, the TGI in the assay with SK-MEL-5 melanoma, in the assay with CCRF-CEM leukemia, with OVCAR-8 ovarian, in the assay on MALME-3M melanoma, in the assay on COLO 205 colon and in the assay on HL-60(TB) leukemia was over 100 µM in each case. For the same molecule, in the assay on SF-295 CNS, the TGI was over 100 µM.

As for `CC(C)C(Cl)CC/C(CBr)=C(\Cl)CCl` (stereo not given), the TGI amounted to 2.49 µM with NCI-H522 lung; 11.8 µM in the assay with HS 578T breast; 26.7 µM in the assay with HCC-2998 colon; 3.29 µM in the assay on T-47D breast; 23.1 µM in the assay with U251 CNS; 26.3 µM with DU-145 prostate. Further, the TGI in the assay on MDA-N was determined as 5.63 µM; in the assay on OVCAR-5 ovarian it was 31.2 µM; in the assay with KM12 colon, 16.4 µM; with EKVX NSCLC, 34 µM; with MDA-MB-231 breast, 8.36 µM; with IGROV1 ovarian, 4.09 µM. Further, the TGI with SK-MEL-5 melanoma was found to be 5.95 µM; with OVCAR-8 ovarian, 4.65 µM; with MALME-3M melanoma, 19.6 µM; in the assay on COLO 205 colon, 12.8 µM; with HL-60(TB) leukemia, 2.24 µM; with SF-295 CNS it was 30.6 µM.

Turning to `Cc1ccccc1NC(=O)/C(C#N)=N\Nc1nc[nH]c1C(N)=O`, the TGI with NCI-H522 lung, in the assay with HS 578T breast, in the assay with HCC-2998 colon, with T-47D breast, in the assay on U251 CNS and with DU-145 prostate was over 100 µM in each case. Besides, the TGI in the assay with MDA-N, in the assay on OVCAR-5 ovarian, with KM12 colon, with EKVX NSCLC, with MDA-MB-231 breast and in the assay on IGROV1 ovarian was over 100 µM throughout. For the same molecule, the TGI with SK-MEL-5 melanoma, with CCRF-CEM leukemia, with OVCAR-8 ovarian, in the assay on MALME-3M melanoma, in the assay on COLO 205 colon and in the assay on HL-60(TB) leukemia was over 100 µM each time. Also, the TGI in the assay on SF-295 CNS is over 100 µM.

For `Cc1ccnc2nc3[nH]c4ccccc4c3cc12`, the TGI in the assay with NCI-H522 lung, in the assay with HS 578T breast, with HCC-2998 colon, in the assay with T-47D breast, in the assay with U251 CNS and with DU-145 prostate was over 100 µM each time. For the same molecule, the TGI in the assay with MDA-N, in the assay on SR leukemia, in the assay with OVCAR-5 ovarian, with KM12 colon, in the assay with EKVX NSCLC and in the assay on MDA-MB-231 breast was over 100 µM each time. For the same molecule, the TGI with IGROV1 ovarian, in the assay on SK-MEL-5 melanoma, in the assay with CCRF-CEM leukemia, in the assay with OVCAR-8 ovarian, with COLO 205 colon and in the assay on SF-295 CNS was over 100 µM each time.

With `CNC(=S)NNC1=NCCCCN1`, the TGI in the assay with NCI-H522 lung, in the assay on HS 578T breast, in the assay with HCC-2998 colon, in the assay with T-47D breast, in the assay on U251 CNS and in the assay on MDA-N was over 100 µM throughout. The TGI in the assay on SR leukemia, with OVCAR-5 ovarian, in the assay on KM12 colon, with EKVX NSCLC, in the assay on MDA-MB-231 breast and in the assay on IGROV1 ovarian was over 100 µM each time. The TGI with SK-MEL-5 melanoma, with CCRF-CEM leukemia, in the assay with OVCAR-8 ovarian, in the assay with MALME-3M melanoma, with COLO 205 colon and in the assay with HL-60(TB) leukemia was over 100 µM each time. In the assay with SF-295 CNS, the TGI was over 100 µM.

For the molecule `CN(C)CCN1C(=O)c2ccccc2C1(O)c1ccc(Cl)cc1` (stereo not given), the TGI in the assay on HS 578T breast, with HCC-2998 colon, in the assay with T-47D breast, in the assay with U251 CNS, in the assay on DU-145 prostate and in the assay with MDA-N was over 100 µM each time. The TGI was over 100 µM in the assay on OVCAR-5 ovarian; over 100 µM in the assay with KM12 colon; over 100 µM in the assay on EKVX NSCLC; over 100 µM in the assay on MDA-MB-231 breast; over 100 µM in the assay on IGROV1 ovarian; 67.2 µM in the assay on SK-MEL-5 melanoma. The TGI is over 100 µM in the assay with CCRF-CEM leukemia; over 100 µM in the assay on OVCAR-8 ovarian; 70.7 µM with MALME-3M melanoma; over 100 µM in the assay with COLO 205 colon; over 100 µM with HL-60(TB) leukemia; over 100 µM in the assay with SF-295 CNS.

`C(/C=N/NC1=NCCCN1)=N\NC1=NCCCN1`: the TGI in the assay with NCI-H522 lung, with HS 578T breast, with HCC-2998 colon, in the assay with T-47D breast, in the assay with U251 CNS and in the assay with MDA-N was over 100 µM each time. Moreover, the TGI in the assay on SR leukemia, with OVCAR-5 ovarian, with KM12 colon, in the assay with EKVX NSCLC, with MDA-MB-231 breast and with IGROV1 ovarian was over 100 µM throughout. Also, the TGI in the assay with SK-MEL-5 melanoma, in the assay on CCRF-CEM leukemia, in the assay with OVCAR-8 ovarian, in the assay with MALME-3M melanoma and in the assay on COLO 205 colon was over 100 µM in each case.

For `CN1CCN(C(=S)N(C)C(=O)c2cccs2)CC1`, the TGI with NCI-H522 lung, in the assay with HS 578T breast, in the assay with HCC-2998 colon, in the assay with T-47D breast, in the assay with U251 CNS and in the assay with DU-145 prostate was over 100 µM throughout. In addition, the TGI with MDA-N, with SR leukemia, in the assay with OVCAR-5 ovarian, with KM12 colon, in the assay on MDA-MB-231 breast and in the assay with IGROV1 ovarian was over 100 µM throughout. Also, the TGI with SK-MEL-5 melanoma, with CCRF-CEM leukemia, in the assay with OVCAR-8 ovarian, with MALME-3M melanoma, with COLO 205 colon and in the assay with SF-295 CNS was over 100 µM each time.

Take `COc1ccc(N2C(=O)/C(=C\c3cc(OC)c(OC)c(OC)c3)S(=O)(=O)C2c2ccccc2)cc1` (stereo not given): the TGI with NCI-H522 lung, in the assay on HS 578T breast, with HCC-2998 colon, in the assay on T-47D breast, with U251 CNS and with DU-145 prostate was over 100 µM each time. Also, the TGI is 40.8 µM in the assay on MDA-N; over 100 µM in the assay with SR leukemia; over 100 µM in the assay with KM12 colon; over 100 µM in the assay with MDA-MB-231 breast; over 100 µM with SK-MEL-5 melanoma; over 100 µM in the assay on CCRF-CEM leukemia. Moreover, the TGI with OVCAR-8 ovarian was over 100 µM; in the assay on MALME-3M melanoma, over 100 µM; in the assay with COLO 205 colon, 41.6 µM; with SF-295 CNS it was over 100 µM.

Take `O=c1[nH]c2ccsc2c(=O)n1COCc1ccccc1`: the TGI with NCI-H522 lung, in the assay on HS 578T breast, in the assay on HCC-2998 colon, with U251 CNS, with DU-145 prostate and in the assay on MDA-N was over 100 µM in each case. Moreover, the TGI in the assay with SR leukemia, in the assay with OVCAR-5 ovarian, in the assay on KM12 colon, in the assay with EKVX NSCLC, in the assay with MDA-MB-231 breast and in the assay on IGROV1 ovarian was over 100 µM throughout. Further, the TGI in the assay with SK-MEL-5 melanoma, with CCRF-CEM leukemia, in the assay on OVCAR-8 ovarian, in the assay on MALME-3M melanoma, with COLO 205 colon and in the assay on HL-60(TB) leukemia was over 100 µM in each case. The same molecule yielded a TGI in the assay on SF-295 CNS of over 100 µM.
